Data published in US20090176807A1, “GLUCOCORTICOID MIMETICS, METHODS OF MAKING THEM, PHARMACEUTICAL COMPOSITIONS, AND USES THEREOF” (priority 2005, published 2009).

Experiments:
[1] = molecular target: T1, human glucocorticoid receptor (GR) complex (Homo sapiens, UniProt P04150); test: Glucocorticoid receptor competitive binding assay (fluorescence polarization); details: competition with TAMRA-labeled dexamethasone, result in words only
T1 construct: made in house; host or cells: insect expression system (baculovirus lysate)
T1 sequence (P04150 1-777): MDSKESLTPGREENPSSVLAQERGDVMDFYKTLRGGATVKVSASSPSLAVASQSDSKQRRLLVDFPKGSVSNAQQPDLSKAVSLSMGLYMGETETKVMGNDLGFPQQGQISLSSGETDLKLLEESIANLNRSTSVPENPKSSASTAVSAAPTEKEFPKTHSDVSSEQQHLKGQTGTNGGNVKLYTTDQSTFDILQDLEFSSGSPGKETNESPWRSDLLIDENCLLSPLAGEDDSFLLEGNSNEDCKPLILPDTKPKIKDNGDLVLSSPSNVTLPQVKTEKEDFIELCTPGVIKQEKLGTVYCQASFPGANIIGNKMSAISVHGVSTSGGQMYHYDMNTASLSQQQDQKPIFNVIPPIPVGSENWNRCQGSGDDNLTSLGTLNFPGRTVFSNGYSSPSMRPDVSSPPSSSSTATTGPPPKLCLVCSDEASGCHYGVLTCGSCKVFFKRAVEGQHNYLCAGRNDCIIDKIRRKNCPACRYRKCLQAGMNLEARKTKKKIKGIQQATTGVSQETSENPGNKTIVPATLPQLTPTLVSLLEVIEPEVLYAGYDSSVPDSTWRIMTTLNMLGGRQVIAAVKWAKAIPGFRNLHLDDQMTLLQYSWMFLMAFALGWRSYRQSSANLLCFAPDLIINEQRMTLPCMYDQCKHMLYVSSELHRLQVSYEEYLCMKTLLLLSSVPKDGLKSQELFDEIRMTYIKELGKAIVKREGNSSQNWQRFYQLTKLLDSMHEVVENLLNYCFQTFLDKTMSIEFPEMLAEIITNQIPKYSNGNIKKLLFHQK
Experimental: Compounds of the invention were evaluated for binding to the steroid receptor by a fluorescence polarization competitive binding assay.
The wavelengths for maximum excitation and emission of the fluorescent probe should first be measured. An example of such a probe is rhodamine (TAMRA)-labeled dexamethasone.
The affinity of the probe for the steroid receptor was then determined in a titration experiment. The fluorescence polarization value of the probe in assay buffer was measured on an SLM-8100 fluorometer using the excitation and emission maximum values described above. Aliquots of expression vector lysate were added and fluorescence polarization was measured after each addition until no further change in polarization value was observed. Non-linear least squares regression analysis was used to calculate the dissociation constant of the probe from the polarization values obtained for lysate binding to the probe.
This assay uses fluorescence polarization (FP) to quantitate the ability of test compounds to compete with tetramethyl rhodamine (TAMRA)-labeled dexamethasone for binding to a human glucocorticoid receptor (GR) complex prepared from an insect expression system. The assay buffer was: 10 mM TES, 50 mM KCl, 20 mM Na2MoO4.2H2O, 1.5 mM EDTA, 0.04% w/v CHAPS, 10% v/v glycerol, 1 mM dithiothreitol, pH 7.4. Test compounds were dissolved to 1 mM in neat DMSO and then further diluted to 10× assay concentration in assay buffer supplemented with 10% v/v DMSO. Test compounds were serially diluted at 10× assay concentrations in 10% DMSO-containing buffer in 96-well polypropylene plates. Binding reaction mixtures were prepared in 96-well black Dynex microtiter plates by sequential addition of the following assay components to each well: 15 μL of 10× test compound solution, 85 μL of GR-containing baculovirus lysate diluted 1:170 in assay buffer, and 50 μL of 15 nM TAMRA-labeled dexamethasone. Positive controls were reaction mixtures containing no test compound; negative controls (blanks) were reaction mixtures containing 0.7 μM to 2 μM dexamethasone. […] IC50 values were determined by iterative non-linear curve fitting of the FP signal data to a 4-parameter logistic equation.

[2] = tested on: Human osteosarcoma MG-63 cells; test: Inhibition of osteocalcin production from osteoblast cell line MG-63; format: cell-based; details: Vitamin D 10 nM, 48 hours, osteocalcin ELISA, result in words only
Experimental: Human osteosarcoma MG-63 cells (ATCC, Cat. No. CRL-1427) are plated on 96 well plates at 20,000 cells per well the day before use in 200 μL media of 99% D-MEM/F-12 (Gibco-Invitrogen, Cat. No. 11039-021), supplemented with 1% penicillin and streptomycin (Gibco-Invitrogen, Cat. No. 15140-122), 10 μg/mL Vitamin C (Sigma, Cat. No. A-4544), and 1% charcoal filtered Fetal Bovine Serum (HyClone, Cat. No. SH30068.02). The next day, wells are replaced with fresh media. Cells are treated with Vitamin D (Sigma, Cat. No. D1530) to a final concentration of 10 nM, and with the test compounds in concentrations of 10^−6 M to 10^−9 M, in a total volume of 200 μL per well. Samples are done in duplicates. […] Positive control wells receive Vitamin D only, without compounds, and represent maximum (100%) amount of osteocalcin production. Plates are incubated at 37° C. incubator for 48 hours and supernatants are harvested at the end of incubation. Amounts of osteocalcin in the supernatants are determined by the Glype osteocalcin ELISA kit (Zymed, Cat. No. 99-0054) according to manufacture's protocol. Inhibition of osteocalcin by test compounds is expressed in percentage relative to positive controls. IC50 values of the test compounds are derived by non-lineal curve fitting.

Row | SMILES | melting point | activity in the GR binding assay [1] | inhibition of the vitamin D stimulated production of osteocalcin [2]
1 | CC(C)(CC(O)(Cn1cc(Cl)c(=O)c2cnccc21)C(F)(F)F)c1cccc2c1OCC2 (stereo not drawn) [3-Chloro-1-[4-(2,3-dihydrobenzofuran-7-yl)-2-hydroxy-4-methyl-2-trifluoromethylpentyl]-1H-[1,6]naphthyridin-4-one] | 158 to 160 °C | potent activity | 
2 | CC(C)(CC(O)(Cn1cc(Br)c(=O)c2sccc21)C(F)(F)F)c1cccc2c1OCO2 (stereo not drawn) [4-(4-Benzo[1,3]dioxol-4-yl-2-hydroxy-4-methyl-2-trifluoromethylpentyl)-6-bromo-4H-thieno[3,2-b]pyridin-7-one] | 197 to 198 °C | potent activity | 
3 | CC(C)(CC(O)(Cn1ccc(=O)c2sccc21)C(F)(F)F)c1cc(-c2cccnc2)ccc1O (stereo not drawn) [4-[2-Hydroxy-4-(2-hydroxy-5-pyridin-3-ylphenyl)-4-methyl-2-trifluoromethylpentyl]-4H-thieno[3,2-b]pyridin-7-one] |  | potent activity | inhibit the vitamin D stimulated production of osteocalcin
4 | CC(C)(CC(O)(Cn1ccc(=O)c2sccc21)C(F)(F)F)c1cc(F)ccc1O (stereo not drawn) [4-[4-(5-Fluoro-2-hydroxyphenyl)-2-hydroxy-4-methyl-2-trifluoromethylpentyl]-4H-thieno[3,2-b]pyridin-7-one] |  | potent activity | inhibit the vitamin D stimulated production of osteocalcin
5 | CC(C)(CC(O)(Cn1cc(Cl)c(=O)c2sccc21)C(F)(F)F)c1cc(-c2cccnc2)ccc1O (stereo not drawn) [6-Chloro-4-[2-hydroxy-4-(2-hydroxy-5-pyridin-3-ylphenyl)-4-methyl-2-trifluoromethylpentyl]-4H-thieno[3,2-b]pyridin-7-one] |  | potent activity | inhibit the vitamin D stimulated production of osteocalcin
6 | CC(C)(CC(O)(Cn1cc(Cl)c(=O)c2sccc21)C(F)(F)F)c1cc(-c2cncnc2)ccc1O (stereo not drawn) [6-Chloro-4-[2-hydroxy-4-(2-hydroxy-5-pyrimidin-5-ylphenyl)-4-methyl-2-trifluoromethylpentyl]-4H-thieno[3,2-b]pyridin-7-one] |  | potent activity | inhibit the vitamin D stimulated production of osteocalcin
7 | CC(C)(CC(O)(Cn1cc(Cl)c(=O)c2sccc21)C(F)(F)F)c1cc(-c2cccnc2)cc2c1OCC2 (stereo not drawn) [6-Chloro-4-[2-hydroxy-4-methyl-4-(5-pyridin-3-yl-2,3-dihydrobenzofuran-7-yl)-2-trifluoromethylpentyl]-4H-thieno[3,2-b]pyridin-7-one] |  | potent activity | 
8 | CC(C)(CC(O)(Cn1cc(Cl)c(=O)c2sccc21)C(F)(F)F)c1cc(-c2cncnc2)cc2c1OCC2 (stereo not drawn) [6-Chloro-4-[2-hydroxy-4-methyl-4-(5-pyrimidin-5-yl-2,3-dihydrobenzofuran-7-yl)-2-trifluoromethylpentyl]-4H-thieno[3,2-b]pyridin-7-one] |  | potent activity | 
9 | CC(C)(CC(O)(Cn1cc(Cl)c(=O)c2sccc21)C(F)(F)F)c1cccc2c1OCC2 (stereo not drawn) [6-Chloro-4-[4-(2,3-dihydrobenzofuran-7-yl)-2-hydroxy-4-methyl-2-trifluoromethylpentyl]-4H-thieno[3,2-b]pyridin-7-one] |  | potent activity | 
